According to ChEMBL document CHEMBL1201862, “PubChem BioAssay data set” (2004):
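Each compound was tested at five concentrations against cells in 96-well plates for 48 hours. GI50 = concentration required for 50% inhibition of growth.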 The source made the active and inactive calls. Rule as the data show it: active = GI50 up to about 1.1 µM and inactive = higher.

Legend:
Test in all cases: inhibition of tumour cell growth, NCI panel, 48 h
786-0 = tested on: 786-0
A498 = tested on: A498
A549 = tested on: A549
ACHN = tested on: ACHN
CAKI-1 = tested on: CAKI-1
CCRF-CEM = tested on: CCRF-CEM
COLO 205 = tested on: COLO 205
DLD-1 = tested on: DLD-1
DMS-273 = tested on: DMS-273
EKVX = tested on: EKVX
HCC 2998 = tested on: HCC 2998
HCT-15 = tested on: HCT-15
HL-60 = tested on: HL-60
HOP-62 = tested on: HOP-62
HOP-92 = tested on: HOP-92
HT-29 = tested on: HT-29
IGROV-1 = tested on: IGROV-1
K562 = tested on: K562
KM-20L2 = tested on: KM-20L2
KM12 = tested on: KM12
LOX IMVI = tested on: LOX IMVI
LXFL 529 = tested on: LXFL 529
M14 = tested on: M14
M19-MEL = tested on: M19-MEL
MOLT-4 = tested on: MOLT-4
Malme-3M = tested on: Malme-3M
NCI-H226 = tested on: NCI-H226
NCI-H23 = tested on: NCI-H23
NCI-H460 = tested on: NCI-H460
NCI-H522 = tested on: NCI-H522
OVCAR-3 = tested on: OVCAR-3
OVCAR-4 = tested on: OVCAR-4
OVCAR-5 = tested on: OVCAR-5
OVCAR-8 = tested on: OVCAR-8
RPMI-8226 = tested on: RPMI-8226
RXF 393 = tested on: RXF 393
RXF 631 = tested on: RXF 631
SF-268 = tested on: SF-268
SF-295 = tested on: SF-295
SF-539 = tested on: SF-539
SK-MEL-28 = tested on: SK-MEL-28
SK-MEL-2 = tested on: SK-MEL-2
SK-MEL-5 = tested on: SK-MEL-5
SK-OV-3 = tested on: SK-OV-3
SN12C = tested on: SN12C
SNB-19 = tested on: SNB-19
SNB-75 = tested on: SNB-75
SNB-78 = tested on: SNB-78
SW-620 = tested on: SW-620
TK-10 = tested on: TK-10
UACC-257 = tested on: UACC-257
UACC-62 = tested on: UACC-62
UO-31 = tested on: UO-31
XF498 = tested on: XF498
DMS-114 = tested on: DMS-114
HCT-116 = tested on: HCT-116
HOP-18 = tested on: HOP-18
SR = tested on: SR
U-251 = tested on: U-251

Measured: GI50

COc1c(C2=NC(C(C)C)CO2)ccc2ccccc12 (stereo not given)
5.11 µM: HCT-15
inactive: 786-0 45.9 µM | A498 27.3 µM | A549 32.7 µM | ACHN 42.6 µM | CAKI-1 61.5 µM | CCRF-CEM 15.3 µM | COLO 205 41.2 µM | DLD-1 16.1 µM | DMS-273 23 µM | EKVX 37.1 µM | HCC 2998 23.7 µM | HL-60 14.6 µM | HOP-62 47.8 µM | HOP-92 30.1 µM | HT-29 24.3 µM | IGROV-1 71 µM | K562 15.1 µM | KM-20L2 42.1 µM | KM12 28.1 µM | LOX IMVI 21.5 µM | LXFL 529 19.2 µM | M14 63.5 µM | M19-MEL 55.5 µM | MOLT-4 14.2 µM | Malme-3M 35.8 µM | NCI-H226 30.6 µM | NCI-H23 34.6 µM | NCI-H460 9.25 µM | NCI-H522 28.2 µM | OVCAR-3 37.2 µM | OVCAR-4 31.7 µM | OVCAR-5 82.8 µM | OVCAR-8 41.5 µM | RPMI-8226 22.6 µM | RXF 393 16.4 µM | RXF 631 39.5 µM | SF-268 29.6 µM | SF-295 26.7 µM | SF-539 34.8 µM | SK-MEL-28 38.6 µM | SK-MEL-2 65.5 µM | SK-MEL-5 14.2 µM | SK-OV-3 > 100 µM | SN12C 64.3 µM | SNB-19 50.5 µM | SNB-75 27.6 µM | SNB-78 79.4 µM | SW-620 45 µM | TK-10 88.3 µM | UACC-257 34.2 µM | UACC-62 49 µM | UO-31 31.4 µM | XF498 30.4 µM

CC(=O)OC12CCCCC1C1(CCCC1)NC2=O (stereo not given)
> 100 µM: HCT-15
inactive: 786-0 > 100 µM | A498 > 100 µM | A549 > 100 µM | ACHN > 100 µM | CCRF-CEM > 100 µM | DLD-1 > 100 µM | DMS-114 > 100 µM | EKVX > 100 µM | HCC 2998 > 100 µM | HCT-116 > 100 µM | HL-60 > 100 µM | HOP-18 > 100 µM | HOP-62 > 100 µM | HT-29 > 100 µM | IGROV-1 > 100 µM | K562 > 100 µM | KM-20L2 > 100 µM | KM12 > 100 µM | LOX IMVI > 100 µM | LXFL 529 > 100 µM | M14 > 100 µM | M19-MEL > 100 µM | MOLT-4 > 100 µM | Malme-3M > 100 µM | NCI-H226 > 100 µM | NCI-H23 > 100 µM | NCI-H460 > 100 µM | OVCAR-3 > 100 µM | OVCAR-4 > 100 µM | OVCAR-5 > 100 µM | OVCAR-8 > 100 µM | RPMI-8226 > 100 µM | RXF 393 > 100 µM | SF-268 > 100 µM | SF-295 > 100 µM | SF-539 > 100 µM | SK-MEL-28 > 100 µM | SK-OV-3 > 100 µM | SN12C > 100 µM | SNB-19 > 100 µM | SNB-75 > 100 µM | SNB-78 > 100 µM | SR > 100 µM | SW-620 > 100 µM | TK-10 > 100 µM | U-251 > 100 µM | UACC-257 > 100 µM | UACC-62 > 100 µM | UO-31 > 100 µM | XF498 > 100 µM
